These results are taken from article PMC9420947, “^131I-Caerin 1.1 and ^131I-Caerin 1.9 for the treatment of non-small-cell lung cancer” (Frontiers in Oncology, 2022).

The test system of series [1] is A549 cells. Format: cell-based, human. Conditions: MTT; for survival rate of A549 cells: overnight, triplicate, mean ± SD. Here is the method: The NSCLC cell line A549 was from the Stem Cell Bank of the Chinese Academy of Sciences. The medium of A549 cells contained 89% RPMI medium 1640 (GIBCO, USA), 10% heat-inactivated fetal bovine serum (Coring, USA), and 1% penicillin-streptomycin solution (GIBCO, USA). The cells were incubated in an incubator (Thermo, USA) at 37°C in 5% CO2.
A total of 500 mg of 3-(4,5-dimethylthiazol-2-yl)-2,5-diphenyl tetrazolium bromide (MTT) powder (Sigma-Aldrich, USA) was dissolved in 100 ml of PBS to a final concentration of 5 mg/ml (0.5% MTT). The solution was stored in the dark at -20°C. A549 cells in the exponential growth phase were seeded in 96-well plates (Coring, USA) at 5×10^3 cells (100 µl) per well and then incubated at 37°C in 5% CO2 for 24 hours. Different concentrations of P3, Caerin 1.1, and Caerin 1.9 were added to the 96-well plates to reach final concentrations of 1, 5, 10, 15, 20, 25, 30, and 40 μg/ml. The experiment was done in triplicate and included control wells. The cells were cultured overnight. Once the drug’s effect was visible under the microscope, 10 µl of MTT solution was added to each well, and the cells were cultured for another 4 hours. Next, the supernatant was carefully aspirated, 150 µl of dimethyl sulfoxide solution (Sigma-Aldrich, USA) was added to each well, and the 96-well plates were placed on a shaker at low speed for 10 minutes. The absorbance at 570 nm was measured in an enzyme-linked immunosorbent assay plate reader (Thermo Scientific, USA). GraphPad Prism v9.3.0 was used calculate the half-maximal inhibitory concentration (IC50) of each drug and the survival rate (%).

Series [2] is described as follows: Body weight of A549 tumor-bearing nude mice. Format: in vivo, BALB/c female nude mice. To be noted: intratumoral injection every other day, four injections, 8 μg peptide and/or 7.4 ×10^6 Bq, 3 days after the last injection, four mice per group. The text has this:
(§1) Specific pathogen–free (SPF) 4-6-week-old (adult) BALB/c female nude mice were purchased from Guangdong Medical Laboratory Animal Center. The animals were housed at the Animal Resource Center (First Affiliated Hospital of Guangdong Pharmaceutical University) under SPF conditions. No animal was sick or died during the study. Nude mice were sacrificed by cervical dislocation in accordance with the Animal Management Measures of the Ministry of Health of the People’s Republic of China (Document no.55, 2001). All experiments were approved and were done in accordance with the guidelines of the Animal Experiment Ethics Committee of the First Affiliated Hospital of Guangdong Pharmaceutical University (Ethics approval number: FAHGPU20160316).
(§2) A total of 100 µl of A549 cells (1×10^6 cells) suspended in PBS were inoculated subcutaneously in the axillary area of nude mice to establish a subcutaneous xenograft model. Once the tumor was 3 to 4 mm long, the nude mice were used in the following experiment. A digital caliper (Mitutoyo, Japan, CD-15APX) was used to monitor tumor size every other day. Tumor volume was calculated according to the formula: volume = width^2 × length/2.
(§3) To reduce the thyroid uptake of ^131I, all nude mice were fed 0.1% potassium iodide (Shanghai Macklin Biochemical Co., Ltd., China) for 3 days to block the thyroid before the experiment. […]

In series [3] the test system is A549 cells. Briefly: Cell elution (retention). Format: cell-based, human. To be noted: 24 h incubation, wash, then 24 hours in serum-free medium, 1.85 ×10^5Bq per well, γ count, triplicate, mean ± SD. On the procedure: A549 cells were seeded in four 24-well plates at 5×10^4 cells (500 µl) per well and cultured for 24 hours. The experiment was done in triplicate and included a positive-control well. The supernatant was discarded, 0.5 ml of serum-free medium was added to each well, and then ^131I-Caerin 1.1, ^131I-Caerin 1.9, or free ^131I was added (1.85 ×10^5Bq or 2 µl per well). After incubation for 24 hours, the supernatant was discarded, the cells were washed twice with PBS, 0.5 ml of serum-free medium was added to each well, and the cells were incubated for another 2, 4, 6, or 24 hours. For the positive control, the supernatant was collected in a tube. For the experimental groups, the supernatant was discarded, the cells were washed twice with PBS, and 200 µl of trypsin was added to each well. After digestion, the cells were washed three times with PBS and then collected in a tube to measure the radioactivity count. GraphPad Prism v9.3.0 was used to calculate the drug retention rate.

The subject of series [4] is A549 cells. The experiment in a line: Cell uptake. Format: cell-based, human. Conditions: 24 hours, serum-free medium, 1.85 ×10^5Bq per well, γ count, triplicate, mean ± SD. On the procedure:
A549 cells were seeded in four 24-well plates (Coring, USA) at 5×10^4 cells (500 µl) per well. The experiment was done in triplicate and included a positive-control well. After the cells were cultured in an incubator for 24 hours, the supernatant was discarded, 0.5 ml of serum-free medium was added to each well, and ^131I-Caerin 1.1 or ^131I-Caerin 1.9 and Na-^131I solution (1.85 ×10^5Bq or 2 µl per well) were added. After the cells were incubated for 2, 4, 6, or 24 hours, the cells were removed from the incubator. For the positive control, the supernatant was collected in a tube. For the experimental groups, the supernatant was discarded, and the cells were washed twice with PBS. Next, 200 µl of trypsin (GIBCO, USA) was added to each well. After digestion, the cells were washed three times with PBS and then collected in a tube to measure their radioactivity count. GraphPad Prism v9.3.0 was used to calculate the drug binding rate.

The test system of series [5] is A549 cells. The experiment in a line: CCK-8 cell proliferation and cytotoxicity. Format: cell-based, human. To be noted: CCK-8, 20,000 KBq/ml, 24 hours, triplicate, mean ± SD. Here is the method: A549 cells were seeded in two 96-well plates at 5×10^3 cells (100 µl) per well and cultured for 24 hours at 5% CO2 and 37°C. The ^131I-Caerin 1.1, ^131I-Caerin 1.9, and Na-^131I solutions were added to a final concentration of 2500, 5000, 10,000, or 20,000 KBq/ml. In the corresponding plates for Caerin 1.1 and Caerin 1.9, the drug concentration was 3.29, 6.95, 14.29, or 30.72 µg/ml. The experiment was done in triplicate and included three control (drug-free) groups. The cells were cultured for another 24 hours. Next, 10 µl of CCK-8 solution (DOJINDO, Japan) was added to each well, and then the cells were cultured in the dark for 4-6 hours. The absorbance at 450 nm was measured in an enzyme-linked immunosorbent assay plate reader, and GraphPad Prism v9.3.0 was used to calculate the cell survival rate.

Series [6] has as its system A549 xenograft NSCLC tumors. Briefly: A549 subcutaneous xenograft in nude mice, tumor growth. Format: in vivo, BALB/c female nude mice. Conditions: intratumoral injection every other day, four injections, 8 μg peptide and/or 7.4 ×10^6 Bq, 3 days after the last injection, four mice per group.
Text: as §1, §2, §3

Read-outs that look alike come from different tables or passages of the source. No end group written: not given here.

For the compound “GLFGVLGSIAKHVLPHVVPVIAEKL-NH2 [Caerin 1.9]”, the “survival rate of A549 cells” value in the series on A549 cells [1] (10 μg/ml) is reported as 74.20% ± 3.57%; in the series with A549 cells [1] (15 μg/ml) it was 72.65% ± 0.76%; in the series with A549 cells [1] (20 μg/ml), 36.43% ± 4.85%; in the series with A549 cells [1] (25 μg/ml) it was 20.43% ± 1.92%. For the same compound, the “IC50 on A549 cells” value with A549 cells [1] (1-40 μg/ml, GraphPad Prism) turned out to be 17.46 µg/mL.
Take `[131I-].[Na+]` [Na-^131I, reference compound]: the “body weight at the time of sacrifice” value in series [2] amounted to 17.99 ± 0.50 g. The “binding rate after elution” value in the series with A549 cells [3] is 4.97% ± 0.59%. Besides, the “uptake rate by A549 cells” value in the series on A549 cells [4] stood at 0.67 ± 0.08%. In addition, in the series with A549 cells [5], the “survival rate of A549 cells” value is reported as 71.56% ± 9.83%. For the same compound, in series [6], the “tumor volume at the time of sacrifice” value amounted to 186.30 ± 19.69 mm^3 and the “tumor weight after sacrifice” value is reported as 0.147 ± 0.009 g.
